Experimental data published in article PMC2898741 (Biochemistry, 2009).

Tests used:
[1] = target: T1, riboflavin binding protein (RfBP) (Gallus gallus, UniProt P02752)
T1 sequence (P02752 18-238): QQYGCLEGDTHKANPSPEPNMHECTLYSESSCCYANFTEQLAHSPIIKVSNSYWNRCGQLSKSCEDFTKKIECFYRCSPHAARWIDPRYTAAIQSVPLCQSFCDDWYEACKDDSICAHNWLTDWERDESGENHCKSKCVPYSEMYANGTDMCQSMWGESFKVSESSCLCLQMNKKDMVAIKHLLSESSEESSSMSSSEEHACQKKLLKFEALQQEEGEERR

ribonuclease A (RNase) = target: T2, ribonuclease A (RNase) (Bos taurus, UniProt P61823); type: binding
T2 sequence (P61823 27-150): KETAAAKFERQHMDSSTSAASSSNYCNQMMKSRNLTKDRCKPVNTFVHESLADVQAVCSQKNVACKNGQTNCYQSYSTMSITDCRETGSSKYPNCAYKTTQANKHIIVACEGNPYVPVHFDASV

[2] = target: T1, riboflavin binding protein (RfBP); remark: listed apart in the source

SMILES	absorbance and fluorescence titration; stopped-flow; DTNB protection [1]	absorbance and fluorescence titration; DTNB protection (ribonuclease A (RNase))	absorbance (252 nm) and fluorescence titration; DTNB protection [2]
C[As](O)O [MMA]	PSAO and MMA bind almost quantitatively to reduced unfolded RfBP	–	–
O[As](O)O [arsenite]	–	Figure 7A demonstrates the binding of arsenite to reduced bovine pancreatic RNase using absorbance and fluorescence quenching	PSAO and arsenite also bind to reduced RfBP with a strong fluorescence quenching
